# Measurements published in patent US10709750B2, “Female menopause alleviation use of composition containing composite extract of red clover and pomegranate as active ingredient” (HLSCIENCE CO., LTD, priority 2014, dated 2020).
# Marks after values point to notes of the source that are not given here.
# What was measured:
# Assay type in all cases: in vivo
# Conditions in all cases: 120 mg/kg po; estradiol 0.03 μg/head sc
# [1] = system: OVX ddY mice; assay: Body weight and food consumption in OVX ddY mice, once daily for 84 days
# Protocol: That is, the experiment was performed after dividing into sterile distilled water 10 ml/kg administered vehicle control after sham surgery (hereinafter sham control), sterile distilled water 10 ml/kg administered vehicle control after OVX surgery (hereinafter OVX control), pomegranate extract single formula 120 mg/kg administered group (PCP) after OVX, and 9 types of red clover:pomegranate extract mixed formula (g/g) administered groups after OVX surgery including red clover:pomegranate extract 1:1 (g/g) mixed formula 120 mg/kg administered group after OVX surgery (1-1), red clover:pomegranate extract 1:2 (g/g) mixed formula 120 mg/kg administered group after OVX surgery (1-2), red clover:pomegranate extract 1:4 (g/g) mixed formula 120 mg/kg administered group after OVX surgery (1-4), red clover:pomegranate extract 1:6 (g/g) mixed formula 120 mg/kg administered group after OVX surgery (1-6), red clover:pomegranate extract 1:8 (g/g) mixed formula 120 mg/kg administered group after OVX surgery (1-8), red clover:pomegranate extract 2:1 (g/g) mixed formula 120 mg/kg administered group after OVX surgery (2-1), red clover:pomegranate extract 4:1 (g/g) mixed formula 120 mg/kg administered group after OVX surgery (4-1), red clover:pomegranate extract 6:1 (g/g) mixed formula 120 mg/kg administered group after OVX surgery (6-1), and red clover:pomegranate extract 8:1 (g/g) mixed formula 120 mg/kg administered group after OVX surgery (8-1).
# (§1) Optimal amounts of red clover extract or pomegranate extract were suspended or dissolved in sterile distilled water, and orally administered at a dose of 10 ml/kg once daily for 84 days from 28 days after OVX. That is, red clover extract and pomegranate extract single formula, and red clover:pomegranate extract 1:1, 1:2, 1:4, 1:6, 1:8, 2:1, 4:1, 6:1 and 8:1 (g/g) mixture 120 mg/kg were each orally administered for 84 days, and sham control and OVX control were orally administered with only sterile distilled water as a vehicle at the same dose for the same period instead of the test material, and according to earlier researchers' method [Chiba et al., 2003; Murakami et al., 2007; Tousen et al., 2011], 0.03 ug of 17β-estradiol (Sigma-Aldrich, St. Louise, Mo., USA) was dissolved in 0.2 ml of sterile saline, and subcutaneously administered to back skin at a dose of 0.2 ml/mouse (0.03 μg/head/day) once daily for 84 days from 28 days after OVX surgery (Table 15, FIG. 18). The administration dose of mixed formula was set higher 12 times than a human clinical dose of 600 mg, i.e., 600 mg/60 kg)×12=120 mg/kg, in consideration of a body surface area of mouse, and the dose of each of red clover extract and pomegranate extract single formula was also set as 120 mg/kg for direct comparative evaluation of efficacy.
# That is, all experimental animals except sham control were randomly selected and underwent bilateral ovariectomy to induce estrogen deficient menopausal disorder. On the other hand, in sham operated group, both ovaries were detected by the same method but incisions were not made, and abdominal cavities were closed again. At 27 days after surgery, based on body weights (OVX mice: 30.71±1.65 g, 28.0-35.1 g; sham operated mice: 26.99±1.46 g, 24.4-28.7 g), 8 mice per group were selected from all experimental animals including sham operated group, and used for experiments.
# More specifically, the anti-obesity and estrogen-like effects were tested as follows. The body weights on OVX surgery date, 1 day before administration (27 days after OVX), the start date of administration, and from the first day after start of administration up to the time of final sacrifice at least once a week were each recorded, and change amounts of body weights, i.e., body weight gains, for the recovery period after OVX (menopausal disorder induction period) and 12 weeks after start of administration were measured. […]
# [2] = system: OVX ddY mice; assay: Abdominal fat pad, uterus and liver weights in OVX ddY mice
# Protocol: as §1
# (§2) More specifically, the anti-obesity and estrogen-like effects were tested as follows. The body weights on OVX surgery date, 1 day before administration (27 days after OVX), the start date of administration, and from the first day after start of administration up to the time of final sacrifice at least once a week were each recorded, and change amounts of body weights, i.e., body weight gains, for the recovery period after OVX (menopausal disorder induction period) and 12 weeks after start of administration were measured. Food consumption (1, 3, 7, 28, 56 and 83 days after start of administration), serum estradiol levels, amounts of body fat and abdominal fat, weights of abdominal fat pad and uterus, histological changes of uterus and abdominal fat pads (changes in abdominal fat pad thickness and mean adipocyte diameter, thickness of uterus total, epithelium and mucosa, and percentage of uterine glands in the mucosa (FIG. 19) were observed.
# (§3) Furthermore, to ascertain the protective effect against fatty liver, testing was conducted as follows. Liver weight, serum AST and ALT levels, and histological changes of liver (changes in mean hepatocyte diameter and region with hepatic degeneration showing fatty change) were observed.
# [3] = system: OVX ddY mice; assay: Femur weights in OVX ddY mice
# Protocol: as §1
# (§4) The osteoporosis reduction effect was ascertained through histological changes in wet, dry and ash weights of femurs, BMD (FIG. 20), bone strength (FIG. 21), serum osteocalcin and bALP levels, bone mass and structure (trabecular bone mass, trabecular bone number, thickness and length, and cortical bone thickness), and bone resorption (osteoclast cell number and osteoclast cell surface (OS/BS)).
# [4] = system: OVX ddY mice; assay: Serum biochemistry in OVX ddY mice
# Protocol: as §1, §2, §3
# The hyperlipidemia inhibitory effect was ascertained through changes in serum TC, LDL, HDL and TG levels.
# as §4
compound,measurement,setting,value
"C[C@]12CC[C@@H]3c4ccc(O)cc4CC[C@H]3[C@@H]1CC[C@@H]2O [Estradiol, 17β-estradiol]",Body weight at sacrifice,[1],35.68 ± 2.19^ab g
same,"Body weight gain, treatment [D-C]",[1],6.96 ± 1.21^fg
same,Change in body weight gain for duration of administration vs OVX control,[1],−52.56%
same,"Change in food consumption vs OVX control, day 1",[1],0.87%
same,"Change in food consumption vs OVX control, day 3",[1],−5.24%
same,"Change in food consumption vs OVX control, day 7",[1],−13.04%
same,"Change in food consumption vs OVX control, day 28",[1],−16.34%
same,"Change in food consumption vs OVX control, day 56",[1],−20.01%
same,"Change in food consumption vs OVX control, day 83",[1],−27.82%
same,"Food consumption, day 1",[1],11.49 ± 1.41^a g/24 hrs/rat
same,"Food consumption, day 3",[1],10.53 ± 0.93^a g/24 hrs/rat
same,"Food consumption, day 7",[1],9.82 ± 0.93^ac g/24 hrs/rat
same,"Food consumption, day 28",[1],9.52 ± 1.01^ab g/24 hrs/rat
same,"Food consumption, day 56",[1],10.24 ± 0.98^ab g/24 hrs/rat
same,"Food consumption, day 83",[1],10.65 ± 1.54^de g/24 hrs/rat
same,Abdominal fat pad absolute wet-weight,[2],0.600 ± 0.536^bc g
same,Abdominal fat pad relative wet-weight,[2],1.656 ± 1.432^bc % of body weight
same,Change in abdominal fat pad absolute weight vs OVX control,[2],−82.20%
same,Change in abdominal fat pad relative weight vs OVX control,[2],−78.86%
same,Change in absolute liver weight vs OVX control,[2],5.37%
same,Change in relative liver weight vs OVX control,[2],27.16%
same,Change in uterus absolute weight vs OVX control,[2],288.64%
same,Change in uterus relative weight vs OVX control,[2],372.56%
same,Liver absolute wet-weight,[2],1.324 ± 0.073 g
same,Liver relative wet-weight,[2],3.724 ± 0.307^c % of body weight
same,Uterus absolute wet-weight,[2],0.107 ± 0.040^ac g
same,Uterus relative wet-weight,[2],0.303 ± 0.124^ac % of body weight
same,Change in femur absolute ash weight vs OVX control,[3],30.35%
same,Change in femur absolute dry weight vs OVX control,[3],14.93%
same,Change in femur absolute wet weight vs OVX control,[3],5.79%
same,Change in femur relative ash weight vs OVX control,[3],57.03%
same,Change in femur relative dry weight vs OVX control,[3],38.22%
same,Change in femur relative wet weight vs OVX control,[3],27.75%
same,Femur absolute ash weight,[3],0.033 ± 0.002^ac g
same,Femur absolute dry weight,[3],0.058 ± 0.004^gi
same,Femur absolute wet weight,[3],0.094 ± 0.007 g
same,Femur relative ash weight,[3],0.092 ± 0.007^ac % of body weight
same,Femur relative dry weight,[3],0.162 ± 0.016^gi % of body weight
same,Femur relative wet weight,[3],0.264 ± 0.032^ac % of body weight
same,Change in serum AST level vs OVX control (first series),[4],−33.98%
same,Change in serum AST level vs OVX control (second series),[4],−31.58%
same,Change in serum HDL level vs OVX control,[4],52.09%
same,Change in serum LDL level vs OVX control,[4],−26.87%
same,Change in serum TC level vs OVX control,[4],−25.94%
same,Change in serum TG level vs OVX control,[4],−34.80%
same,Change in serum bALP level vs OVX control,[4],39.72%
